Our source for the Ki values is ChEMBL document CHEMBL3600366, “New 4-[(3-cyclohexyl-4-aryl-2,3-dihydro-1,3-thiazol-2-ylidene)amino]benzene-1-sulfonamides, synthesis and inhibitory activity toward carbonic anhydrase I, II, IX, XII” (Bioorg Med Chem Lett, 2015).

Usually Ki stands for the equilibrium dissociation constant of an inhibitor or competing ligand from its target. A higher Ki goes with weaker binding.

Bounds are passed on as bounds.

One assay addresses Carbonic anhydrase 9 (Homo sapiens, UniProt Q16790). Briefly: Inhibition of human carbonic anhydrase-9.
Take `NS(=O)(=O)c1ccc(/N=c2\scc(-c3cccc([N+](=O)[O-])c3)n2C2CCCCC2)cc1`: the Ki was determined as 0.193 µM.
Same read-out and setting: to `N#Cc1ccc(-c2cs/c(=N\c3ccc(S(N)(=O)=O)cc3)n2C2CCCCC2)cc1` belongs 0.0295 µM; to `NS(=O)(=O)c1ccc(/N=c2\scc(-c3ccc(Cl)cc3Cl)n2C2CCCCC2)cc1`, 0.342 µM; to `NS(=O)(=O)c1ccc(/N=c2\scc(-c3ccc(-c4ccccc4)cc3)n2C2CCCCC2)cc1`, 0.0325 µM.
Still for that read-out and setting: to `Cc1ccc(-c2cs/c(=N\c3ccc(S(N)(=O)=O)cc3)n2C2CCCCC2)cc1` belongs 0.0227 µM; to `NS(=O)(=O)c1ccc(/N=c2\scc(-c3ccc(F)cc3F)n2C2CCCCC2)cc1`, 0.0855 µM; to `NS(=O)(=O)c1ccc(/N=c2\scc(-c3ccccc3)n2C2CCCCC2)cc1`, 0.354 µM.
The same measure, in the same setting: to `NS(=O)(=O)c1ccc(/N=c2\scc(-c3cccs3)n2C2CCCCC2)cc1` belongs 0.15 µM.
Consider `NS(=O)(=O)c1ccc(/N=c2\scc(-c3ccc(Cl)cc3)n2C2CCCCC2)cc1`, for which the Ki is 0.353 µM.
Still for that read-out and setting: to `NS(=O)(=O)c1ccc(/N=c2\scc(-c3ccc(F)cc3)n2C2CCCCC2)cc1` belongs 0.274 µM.
In turn, `NS(=O)(=O)c1ccc(/N=c2\scc(-c3ccc([N+](=O)[O-])cc3)n2C2CCCCC2)cc1` yielded an inhibition constant (Ki) of 0.0294 µM.
`COc1ccc(-c2cs/c(=N\c3ccc(S(N)(=O)=O)cc3)n2C2CCCCC2)cc1` came in with an inhibitory constant (Ki) of 0.0165 µM.

A further assay deals with Carbonic anhydrase 1 (Homo sapiens, UniProt P00915). Briefly: Inhibition of human carbonic anhydrase-1.
Chain of Carbonic anhydrase 1 (P00915 whole entry): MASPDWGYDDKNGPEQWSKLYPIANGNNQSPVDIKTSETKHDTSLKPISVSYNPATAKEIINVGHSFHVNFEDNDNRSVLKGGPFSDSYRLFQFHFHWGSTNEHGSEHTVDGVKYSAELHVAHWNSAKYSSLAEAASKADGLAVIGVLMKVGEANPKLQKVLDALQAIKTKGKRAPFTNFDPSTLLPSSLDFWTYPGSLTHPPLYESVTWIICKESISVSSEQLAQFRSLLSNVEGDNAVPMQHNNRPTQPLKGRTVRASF
As for `NS(=O)(=O)c1ccc(/N=c2\scc(-c3ccc(Br)cc3)n2C2CCCCC2)cc1`, the inhibition constant (Ki) is more than 10 µM.
